Source: US12421210B2, “Fused bicyclic heterocycles as therapeutic agents” (NEW YORK UNIVERSITY, priority 2018, dated 2025)

target: human NAMPT enzyme (His-hNAMPT) (Homo sapiens (Human), UniProt P43490); test: NAMPT enzymatic inhibition assay (fluorescence, NADH product); assay type: biochemical; details: [HDB]; read-out: NAMPT IC50 (μM) [HDB]
Sequence (P43490 whole entry): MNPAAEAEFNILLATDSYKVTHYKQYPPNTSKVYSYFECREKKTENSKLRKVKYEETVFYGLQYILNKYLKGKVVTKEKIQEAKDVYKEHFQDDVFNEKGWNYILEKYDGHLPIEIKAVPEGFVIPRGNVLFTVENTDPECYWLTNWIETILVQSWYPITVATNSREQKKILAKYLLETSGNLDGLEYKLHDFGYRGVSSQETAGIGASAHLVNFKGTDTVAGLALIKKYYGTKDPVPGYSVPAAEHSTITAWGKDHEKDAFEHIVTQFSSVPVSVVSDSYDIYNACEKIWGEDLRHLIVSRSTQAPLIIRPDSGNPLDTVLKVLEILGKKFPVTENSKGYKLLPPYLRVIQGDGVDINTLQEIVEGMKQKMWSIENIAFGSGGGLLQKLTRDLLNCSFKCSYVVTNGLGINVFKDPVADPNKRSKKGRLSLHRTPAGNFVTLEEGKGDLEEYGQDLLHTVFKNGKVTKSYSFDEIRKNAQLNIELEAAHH

Structure (SMILES)	IC50
O=C(/C=C/c1cccnc1)NCC[C@@H]1[C@H]2CN(Cc3ccc(Cl)cc3)C[C@@H]12 [Example 302, (E)-N-(2-((1R,5S,6s)-3-(4-chlorobenzyl)-3-azabicyclo[3.1.0]hexan-6-yl)ethyl)-3-(pyridin-3-yl)acrylamide]	0.01 to 0.49 µM
Cc1cc(N2C[C@@H]3[C@@H](CCNC(=O)/C=C/c4cccnc4)[C@@H]3C2)cc(C)n1 [Example 307, (E)-N-(2-((1R,5S,6s)-3-(2,6-dimethylpyridin-4-yl)-3-azabicyclo[3.1.0]hexan-6-yl)ethyl)-3-(pyridin-3-yl)acrylamide]	0.01 to 0.49 µM
O=C(/C=C/c1cccnc1)NCC[C@@H]1[C@H]2CN(c3nc(OCc4ccccc4)ncc3F)C[C@@H]12 [Example 308, (E)-N-(2-((1R,5S,6s)-3-(2-(benzyloxy)-5-fluoropyrimidin-4-yl)-3-azabicyclo[3.1.0]hexan-6-yl)ethyl)-3-(pyridin-3-yl)acrylamide]	< 0.01 µM
CN(C)CCOc1ncc(F)c(N2C[C@@H]3[C@@H](CCNC(=O)/C=C/c4cccnc4)[C@@H]3C2)n1 [Example 311, (E)-N-(2-((1R,5S,6s)-3-(2-(2-(dimethylamino)ethoxy)-5-fluoropyrimidin-4-yl)-3-azabicyclo[3.1.0]hexan-6-yl)ethyl)-3-(pyridin-3-yl)acrylamide]	< 0.01 µM
Nc1ncc(F)c(N2C[C@@H]3[C@@H](CCNC(=O)/C=C/c4cccnc4)[C@@H]3C2)n1 [Example 312, (E)-N-(2-((1R,5S,6s)-3-(2-amino-5-fluoropyrimidin-4-yl)-3-azabicyclo[3.1.0]hexan-6-yl)ethyl)-3-(pyridin-3-yl)acrylamide]	< 0.01 µM
COc1ncc(F)c(N2C[C@@H]3[C@@H](CCNC(=O)/C=C/c4ccc(F)nc4)[C@@H]3C2)n1 [Example 313, (E)-N-(2-((1R,5S,6s)-3-(5-fluoro-2-methoxypyrimidin-4-yl)-3-azabicyclo[3.1.0]hexan-6-yl)ethyl)-3-(6-fluoropyridin-3-yl)acrylamide]	< 0.01 µM
CC(c1ncccn1)N1C[C@@H]2[C@@H](CCNC(=O)/C=C/c3cccnc3)[C@@H]2C1 (stereo partly drawn) [Example 315, (E)-3-(pyridin-3-yl)-N-(2-((1R,5S,6s)-3-(1-(pyrimidin-2-yl)ethyl)-3-azabicyclo[3.1.0]hexan-6-yl)ethyl)acrylamide]	0.01 to 0.49 µM
O=C(/C=C/c1cccnc1)NCC[C@@H]1[C@H]2CN(Cc3cnc(Cl)nc3)C[C@@H]12 [Example 316]	0.01 to 0.49 µM
CNC(=O)C(c1ccccc1)N1C[C@@H]2[C@@H](CCNC(=O)/C=C/c3cccnc3)[C@@H]2C1 (stereo partly drawn) [Example 317, (E)-N-(2-((1R,5S,6s)-3-(2-(methylamino)-2-oxo-1-phenylethyl)-3-azabicyclo[3.1.0]hexan-6-yl)ethyl)-3-(pyridin-3-yl)acrylamide]	< 0.01 µM
CCN(CC)C(=O)C(c1ccccc1)N1C[C@@H]2[C@@H](CCNC(=O)/C=C/c3cccnc3)[C@@H]2C1 (stereo partly drawn) [Example 318, (E)-N-(2-((1R,5S,6s)-3-(2-(diethylamino)-2-oxo-1-phenylethyl)-3-azabicyclo[3.1.0]hexan-6-yl)ethyl)-3-(pyridin-3-yl)acrylamide]	< 0.01 µM
CC(c1ccncc1)N1C[C@@H]2[C@@H](CCNC(=O)/C=C/c3cccnc3)[C@@H]2C1 (stereo partly drawn) [Example 319, (E)-3-(pyridin-3-yl)-N-(2-((1R,5S,6s)-3-(1-(pyridin-4-yl)ethyl)-3-azabicyclo[3.1.0]hexan-6-yl)ethyl)acrylamide]	< 0.01 µM
CC(c1ccccn1)N1C[C@@H]2[C@@H](CCNC(=O)/C=C/c3cccnc3)[C@@H]2C1 (stereo partly drawn) [Example 321, (E)-N-(2-((1R,5S,6s)-3-(1-(pyridin-2-yl)ethyl)-3-azabicyclo[3.1.0]hexan-6-yl)ethyl)-3-(pyridin-3-yl)acrylamide]	0.01 to 0.49 µM
CC(c1ccc(F)cc1)N1C[C@@H]2[C@@H](CCNC(=O)/C=C/c3cccnc3)[C@@H]2C1 (stereo partly drawn) [Example 322, (E)-N-(2-((1R,5S,6s)-3-(1-(4-fluorophenyl)ethyl)-3-azabicyclo[3.1.0]hexan-6-yl)ethyl)-3-(pyridin-3-yl)acrylamide]	0.01 to 0.49 µM
CC(c1cccc(F)c1)N1C[C@@H]2[C@@H](CCNC(=O)/C=C/c3cccnc3)[C@@H]2C1 (stereo partly drawn) [Example 323, (E)-N-(2-((1R,5S,6s)-3-(1-(3-fluorophenyl)ethyl)-3-azabicyclo[3.1.0]hexan-6-yl)ethyl)-3-(pyridin-3-yl)acrylamide]	< 0.01 µM
CNC(=O)COc1ncc(F)c(N2C[C@@H]3[C@@H](CCNC(=O)/C=C/c4cccnc4)[C@@H]3C2)n1 [Example 328, (E)-N-(2-((1R,5S,6s)-3-(5-fluoro-2-(2-(methylamino)-2-oxoethoxy)pyrimidin-4-yl)-3-azabicyclo[3.1.0]hexan-6-yl)ethyl)-3-(pyridin-3-yl)acrylamide]	0.01 to 0.49 µM
CCN(CC)C(=O)COc1ncc(F)c(N2C[C@@H]3[C@@H](CCNC(=O)/C=C/c4cccnc4)[C@@H]3C2)n1 [Example 329, (E)-N-(2-((1R,5S,6s)-3-(2-(2-(diethylamino)-2-oxoethoxy)-5-fluoropyrimidin-4-yl)-3-azabicyclo[3.1.0]hexan-6-yl)ethyl)-3-(pyridin-3-yl)acrylamide]	0.01 to 0.49 µM
O=C(/C=C/c1cccnc1)NCC[C@@H]1[C@H]2CN(c3nc(OCCN4CCOCC4)ncc3F)C[C@@H]12 [Example 331, (E)-N-(2-((1R,5S,6s)-3-(5-fluoro-2-(2-morpholinoethoxy)pyrimidin-4-yl)-3-azabicyclo[3.1.0]hexan-6-yl)ethyl)-3-(pyridin-3-yl)acrylamide]	< 0.01 µM

Next, values leading:

IC50	Structure (SMILES)
< 0.01 µM	O=C(/C=C/c1cccnc1)NCC[C@@H]1[C@H]2CN(Cc3cccc(Cl)c3)C[C@@H]12 [Example 301, (E)-N-(2-((1R,5S,6s)-3-(3-chlorobenzyl)-3-azabicyclo[3.1.0]hexan-6-yl)ethyl)-3-(pyridin-3-yl)acrylamide]
0.01 to 0.49 µM	CC(C)Oc1ncc(F)c(N2C[C@@H]3[C@@H](CCNC(=O)/C=C/c4cccnc4)[C@@H]3C2)n1 [Example 303, (E)-N-(2-((1R,5S,6s)-3-(5-fluoro-2-isopropoxypyrimidin-4-yl)-3-azabicyclo[3.1.0]hexan-6-yl)ethyl)-3-(pyridin-3-yl)acrylamide]
< 0.01 µM	CN(C)c1ncc(F)c(N2C[C@@H]3[C@@H](CCNC(=O)/C=C/c4cccnc4)[C@@H]3C2)n1 [Example 304, (E)-N-(2-((1R,5S,6s)-3-(2-(dimethylamino)-5-fluoropyrimidin-4-yl)-3-azabicyclo[3.1.0]hexan-6-yl)ethyl)-3-(pyridin-3-yl)acrylamide]
< 0.01 µM	O=C(/C=C/c1cccnc1)NCC[C@@H]1[C@H]2CN(c3nc(OC4CCOCC4)ncc3F)C[C@@H]12 [Example 305, (E)-N-(2-((1R,5S,6s)-3-(5-fluoro-2-((tetrahydro-2H-pyran-4-yl)oxy)pyrimidin-4-yl)-3-azabicyclo[3.1.0]hexan-6-yl)ethyl)-3-(pyridin-3-yl)acrylamide]
0.01 to 0.49 µM	O=C(/C=C/c1cccnc1)NCC[C@@H]1[C@H]2CN(c3nc(Oc4ccccc4)ncc3F)C[C@@H]12 [Example 306, (E)-N-(2-((1R,5S,6s)-3-(5-fluoro-2-phenoxypyrimidin-4-yl)-3-azabicyclo[3.1.0]hexan-6-yl)ethyl)-3-(pyridin-3-yl)acrylamide]
< 0.01 µM	COC(=O)C(c1ccccc1)N1C[C@@H]2[C@@H](CCNC(=O)/C=C/c3cccnc3)[C@@H]2C1 (stereo partly drawn) [Example 309, methyl 2-phenyl-2-((1R,5S,6s)-6-(2-((E)-3-(pyridin-3-yl)acrylamido)ethyl)-3-azabicyclo[3.1.0]hexan-3-yl)acetate]
0.01 to 0.49 µM	O=C(/C=C/c1cccnc1)NCC[C@@H]1[C@H]2CN(c3ccnc(OC4CCOCC4)c3)C[C@@H]12 [Example 310, (E)-3-(Pyridin-3-yl)-N-(2-((1R,5S,6s)-3-(2-((tetrahydro-2H-pyran-4-yl)oxy)pyridin-4-yl)-3-azabicyclo[3.1.0]hexan-6-yl)ethyl)acrylamide]
0.01 to 0.49 µM	O=C(/C=C/c1cccnc1)NCC[C@@H]1[C@H]2CN(c3nc(OCCO)ncc3F)C[C@@H]12 [Example 314, (E)-N-(2-((1R,5S,6s)-3-(5-fluoro-2-(2-hydroxyethoxy)pyrimidin-4-yl)-3-azabicyclo[3.1.0]hexan-6-yl)ethyl)-3-(pyridin-3-yl)acrylamide]
< 0.01 µM	CC(c1cccnc1)N1C[C@@H]2[C@@H](CCNC(=O)/C=C/c3cccnc3)[C@@H]2C1 (stereo partly drawn) [Example 320, (E)-3-(pyridin-3-yl)-N-(2-((1R,5S,6s)-3-(1-(pyridin-3-yl)ethyl)-3-azabicyclo[3.1.0]hexan-6-yl)ethyl)acrylamide]
0.01 to 0.49 µM	O=C(/C=C/c1cccnc1)NCC[C@@H]1[C@H]2CN(c3nc(N4CCNCC4)ncc3F)C[C@@H]12 [Example 324, (E)-N-(2-((1R,5S,6s)-3-(5-fluoro-2-(piperazin-1-yl)pyrimidin-4-yl)-3-azabicyclo[3.1.0]hexan-6-yl)ethyl)-3-(pyridin-3-yl)acrylamide]
< 0.01 µM	CN1CCN(c2ncc(F)c(N3C[C@@H]4[C@@H](CCNC(=O)/C=C/c5cccnc5)[C@@H]4C3)n2)CC1 [Example 325, (E)-N-(2-((1R,5S,6s)-3-(5-fluoro-2-(4-methylpiperazin-1-yl)pyrimidin-4-yl)-3-azabicyclo[3.1.0]hexan-6-yl)ethyl)-3-(pyridin-3-yl)acrylamide]
< 0.01 µM	O=C(/C=C/c1cccnc1)NCC[C@@H]1[C@H]2CN(c3nc(N4CCC(O)C4)ncc3F)C[C@@H]12 (stereo partly drawn) [Example 326, (E)-N-(2-((1R,5S,6s)-3-(5-fluoro-2-(3-hydroxypyrrolidin-1-yl)pyrimidin-4-yl)-3-azabicyclo[3.1.0]hexan-6-yl)ethyl)-3-(pyridin-3-yl)acrylamide]
< 0.01 µM	CNc1ncc(F)c(N2C[C@@H]3[C@@H](CCNC(=O)/C=C/c4cccnc4)[C@@H]3C2)n1 [Example 327, (E)-N-(2-((1R,5S,6s)-3-(5-fluoro-2-(methylamino)pyrimidin-4-yl)-3-azabicyclo[3.1.0]hexan-6-yl)ethyl)-3-(pyridin-3-yl)acrylamide]
0.01 to 0.49 µM	COc1ncc(F)c(N2C[C@@H]3[C@@H](CCNC(=O)/C=C/c4cncc(F)c4)[C@@H]3C2)n1 [Example 330, (E)-N-(2-((1R,5S,6s)-3-(5-fluoro-2-methoxypyrimidin-4-yl)-3-azabicyclo[3.1.0]hexan-6-yl)ethyl)-3-(5-fluoropyridin-3-yl)acrylamide]
